{"source": "patent US20110224311A1", "about": "“Natural Product Sweetness Enhancers” (priority 2009, published 2011)", "key": {"[1]": {"test_system": "trained judges (expert taste panel)", "assay": "Double-blind sequential monadic sweetness intensity test, sip and spit (Example 1 protocol)", "type": "in vivo, human", "source_text": "Subjects were given three samples to evaluate. Each subject was directed to swirl the first sample in his or her mouth for 3-5 seconds, expectorate the entire sample into a discard cup, and then assess the sweetness intensity of the sample. The intensity was rated on a score card by marking a numerical value along a scale from 0 to 8 (e.g., 0=none, 2=slight, 4=definite, 8=very strong). Following the decision regarding the sweetness intensity, subjects were instructed to rinse their mouth with water and spit in the discard cup. Subjects then were given unsalted crackers to cleanse the palate. A period of 10 minutes elapsed between presentations of each sample to reduce the potential influence of residual taste effects. A second sample was then presented and evaluated as above and the same procedure was followed until all three products were evaluated. Sample presentation was randomized to avoid order of presentation bias. To participate in the sensory panel, judges or subjects were chosen from an expert taste panel. These subjects were screened for taste acuity and were trained in evaluating solutions using the sip and spit protocol and were trained in using a rating ballot. The number of judges who participated in the study was 20. The female subjects were all non-pregnant and all volunteers were of <55 years of age with no history of allergy to sucrose. Judges were asked to execute an informed consent form. Specifically, the following instructions were given to the judges: Please take a sip of water. Carefully take the cap off the sample cup placed in front of you. Sip, swirl for 3-5 seconds, and then spit the sample into the cup provided, then assess the intensity of the sweetness of the sample. Please evaluate the sample for the intensity of the sweet flavor and put a vertical mark on the number that best describes the intensity. Rinse your mouth with the water provided and spit into the discard cup. Use crackers provided to cleanse your palate before evaluating the next sample. If any other flavor was present in the sample please describe it. Please rinse your mouth again several times and have some more water and unsalted crackers. You will now have a rest period of 10 minutes before you will be given the next sample."}, "[2]": {"settings": "cited from earlier work"}, "[3]": {"settings": "cited from earlier work", "remark": "listed apart in the source"}, "[4]": {"test_system": "trained judges (expert taste panel)", "assay": "Double-blind sequential monadic sweetness intensity test, taste and swallow (Example 6 protocol), beverages and solutions", "type": "in vivo, human", "settings": "for intrinsic sweetness in unsweetened beverage: Reb C at 190 ppm or below (95, 190, 285 ppm tested)"}, "[5]": {"test_system": "test group having five (5) subjects", "assay": "Forced-choice taste test of Reb C water solution against water", "type": "in vivo, human", "settings": "250 μM Reb C water solution", "protocol": "The taste of a 250 μM Reb C solution was evaluated by a test group having five (5) subjects as follows (Forced-choice): Subjects were presented with 2 cups, each containing 10 ml of either 250 μM Reb C water solution or water (room temperature). […] Subjects were asked to sip most or all of the 10 ml from the first cup, swish the liquid in their oral cavity, and expectorate into a cup, then rinse their mouths vigorously with water. Soon thereafter, the contents of the second cup were sampled in the same manner. Then, subjects were asked to choose the sweeter of the two samples, or if not sweet, to describe the qualitative taste profile of the sample having a detectable taste."}, "[6]": {"test_system": "test group having four (4) subjects", "assay": "Open qualitative taste report of Reb C water solutions", "type": "in vivo, human", "settings": "250 and 300 μM Reb C in water, subjects 1 to 4", "protocol": "The taste of 250 μM and 300 μM Reb C solutions were evaluated as follows by another test group having four (4) subjects as follows: 10 ml solutions of 250 and 300 μM Reb C in water were sampled by four subjects who were asked to report their qualitative taste experience of the solutions. […] The subjects have the following qualitative taste descriptions: […]"}, "[7]": {"test_system": "10 panelists", "assay": "Quantitative taste profile by trained panelists (Example 11)", "type": "in vivo, human", "protocol": "The taste of 150, 300, and 600 μM Reb C was evaluated by a test group. 10 panelists were trained over a period of a few weeks to provide a quantitative flavor profile of Reb C. Panelists first were trained using standard tastants representing the different taste modalities given in FIG. 10 (i.e., sweet, bitter, salt, sour, and licorice). They then were trained to use the scales when flavors were mixed together. All intensity ratings are on scales ranging from 0 (no taste) to 8 (highest intensity). The intensity rating for sweet is essentially the same as used in Examples 1 and 6. The taste profiles were obtained for 150, 300, and 600 μM Reb C. Reb A (0.2 mg/ml, a concentration used in some food/beverage applications for sweetening) was also evaluated in the test for comparison. The scale is not linear at the bottom. A rating of 1 is around the threshold for sweetness detection."}, "[8]": {"settings": "5% (w/v-%) fructose solution + 300 μM enhancer, versus 7% (w/v-%) fructose"}, "[9]": {"settings": "5% (w/v-%) sucrose solution + 300 μM enhancer, versus 7% (w/v-%) sucrose, scale 0 to 8"}, "[10]": {"settings": "8% (w/v-%) sucrose solution + 300 μM enhancer, versus 11% (w/v-%) sucrose"}}, "note": "Several values for one entry are separate records, joined by “and”; a condition that tells them apart may be missing. Equal values may be shown once. Entries after “also recorded” stand apart in the source; their conditions may differ. Read-outs that look alike come from different tables or passages of the source."}
{"compound": "C=C1C[C@@]23CC[C@H]4[C@@](C)(CCC[C@@]4(C)C(=O)O[C@@H]4O[C@H](CO)[C@@H](O)[C@H](O)[C@H]4O)[C@@H]2CC[C@]1(O[C@@H]1O[C@H](CO)[C@@H](O)[C@H](O)[C@H]1O[C@@H]1O[C@@H](C)[C@H](O)[C@@H](O)[C@H]1O)C3", "note": "[Dulc A, dulcoside A]", "values": [{"measurement": "sweetness of sweetener solution with enhancer compared with higher sweetener concentration", "setting": "[1]; [8]", "result": "achieved that of a 7% (w/v-%) fructose solution; also recorded: acts synergistically"}, {"measurement": "sweetness of sweetener solution with enhancer compared with higher sweetener concentration", "setting": "[1]; [9]", "result": "achieved that of a 7% (w/v-%) sucrose solution; also recorded: acts synergistically"}, {"measurement": "sweetness of sweetener solution with enhancer compared with higher sweetener concentration", "setting": "[1]; [10]", "result": "approached that of an 11% (w/v-%) sucrose solution; also recorded: acts synergistically"}, {"measurement": "off-tastes", "setting": "[1]; 8% (w/v-%) sucrose solution with 300 μM Dulc A", "result": "No off-tastes were detected"}, {"measurement": "mean sweetness intensity score", "setting": "[1]; 8% (w/v-%) sucrose solution with 300 μM Dulc A, scale 0 to 8", "result": 6.3}, {"measurement": "sweetness relative to sucrose", "setting": "[2]; known values, background", "result": "30 times sweeter than sucrose"}]}
{"compound": "C=C1C[C@@]23CC[C@H]4[C@@](C)(CCC[C@@]4(C)C(=O)O[C@@H]4O[C@H](CO)[C@@H](O)[C@H](O)[C@H]4O)[C@@H]2CC[C@]1(O[C@@H]1O[C@H](CO)[C@@H](O)[C@H](O[C@@H]2O[C@H](CO)[C@@H](O)[C@H](O)[C@H]2O)[C@H]1O[C@@H]1O[C@H](CO)[C@@H](O)[C@H](O)[C@H]1O)C3", "note": "[rebaudioside A]", "values": [{"measurement": "aftertaste among the diterpene glycosides of Stevia extracts", "setting": "[2]; bitter and licorice-like aftertaste", "result": "least aftertaste"}, {"measurement": "effect in mixtures with other sweeteners", "setting": "[3]; mixture with sucrose, sweetness intensity equivalent to 7% (w/v-%) sucrose", "result": "additive effect"}, {"measurement": "effect in mixtures with other sweeteners", "setting": "[3]; mixtures with fructose and glucose, sweetness intensity equivalent to 3% (w/v-%) sucrose", "result": "additive effect"}, {"measurement": "effect in mixtures with other sweeteners", "setting": "[3]; mixtures with fructose, glucose and sucrose, sweetness intensity equivalent to 5% (w/v-%) sucrose", "result": "additive effect"}, {"measurement": "effect in mixtures with other sweeteners", "setting": "[3]; mixtures with glucose and fructose, sweetness intensity equivalent to 7% (w/v-%) sucrose", "result": "suppressive effect"}, {"measurement": "effect in mixtures with other sweeteners", "setting": "[3]; mixtures with sucrose, sweetness intensity equivalent to 3% (w/v-%) sucrose", "result": "synergistic effect"}]}
{"compound": "OC[C@H]1O[C@@](CO)(O[C@H]2O[C@H](CO)[C@@H](O)[C@H](O)[C@H]2O)[C@@H](O)[C@@H]1O", "note": "[sucrose, α-D-glucopyranosyl-(1→2)-β-D-fructofuranose, reference compound]", "values": [{"measurement": "mean sweetness intensity score", "setting": "[1]; 8% (w/v-%) sucrose solution alone (low-concentration comparator), scale 0 to 8", "result": "5.30 and 5.0"}, {"measurement": "mean sweetness intensity score", "setting": "[1]; 11% (w/v-%) sucrose solution alone (high-concentration comparator), scale 0 to 8", "result": "6.95 and 6.7"}]}
{"compound": "C=C1CC23CCC4C(C)(C(=O)OC5OC(CO)C(O)C(O)C5O)CCCC4(C)C2CCC1(OC1OC(CO)C(O)C(OC2OC(CO)C(O)C(O)C2O)C1OC1OC(C)C(O)C(O)C1O)C3", "note": "(stereo not drawn) [Reb C, rebaudioside C]", "values": [{"measurement": "sweetness of sweetener solution with enhancer compared with higher sweetener concentration", "setting": "[1]; [8]", "result": "close to that of a 7% (w/v-%) fructose solution; also recorded: acts synergistically"}, {"measurement": "sweetness of sweetener solution with enhancer compared with higher sweetener concentration", "setting": "[1]; [9]", "result": "indistinguishable from that of a 7% (w/v-%) sucrose solution; also recorded: acts synergistically"}, {"measurement": "sweetness of sweetener solution with enhancer compared with higher sweetener concentration", "setting": "[1]; 8% (w/v-%) sucrose solution + 150 μM Reb C, versus 8% and 11% (w/v-%) sucrose", "result": "between that of the 8% (w/v-%) sucrose solution and that of an 11% (w/v-%) sucrose solution; also recorded: significantly enhanced"}, {"measurement": "sweetness of sweetener solution with enhancer compared with higher sweetener concentration", "setting": "[1]; [10]", "result": "close to that of an 11% (w/v-%) sucrose solution; also recorded: significantly enhanced"}, {"measurement": "mean sweetness intensity score", "setting": "[1]; 8% (w/v-%) sucrose solution with 150 μM Reb C, scale 0 to 8", "result": 6.10}, {"measurement": "sweetness of sweetener solution with enhancer compared with higher sweetener concentration", "setting": "[4]; 7.14% w/v erythritol water solution + 285 ppm (300 μM) Reb C, versus 7.14% and 10% erythritol", "result": "significantly sweeter than the 7.14% erythritol solution alone, but did not achieve the sweetness of a 10% erythritol solution; also recorded: acts synergistically"}, {"measurement": "statistical significance of the sweetness enhancing effect", "setting": "[4]; 8% (w/v-%) fructose solution + 300 μM Reb C", "result": "not statistically significant"}, {"measurement": "sweetness of sweetener solution with enhancer compared with higher sweetener concentration", "setting": "[4]; 8% (w/v-%) fructose solution + 300 μM Reb C, versus 8% and 11% fructose", "result": "between that of the 8% (w/v-%) fructose solution and that of an 11% (w/v-%) fructose solution"}, {"measurement": "sweetness of beverage with enhancer compared with higher sweetener concentration", "setting": "[4]; cola beverage buffered with citric acid, 10.39% (w/v-%) HFCS55 + 190 ppm Reb C, versus 14.29% HFCS55", "result": "significantly increases the sweetness intensity to that of 14.29% HFCS55; also recorded: synergistically enhanced"}, {"measurement": "sweetness of beverage with enhancer compared with beverage alone", "setting": "[4]; cola beverage buffered with phosphoric acid, 10.39% (w/v-%) HFCS55 + 190 ppm Reb C", "result": "is not higher than that of 10.39% (w/v-%) HFCS55 cola beverage alone"}, {"measurement": "sweetness of beverage with enhancer compared with higher sweetener concentration", "setting": "[4]; cola beverage buffered with phosphoric acid, 10.39% (w/v-%) HFCS55 + 310 ppm Reb C, versus 14.29% HFCS55", "result": "increased significantly the sweetness intensity of a cola beverage containing 10.39% (w/v-%) HFCS55, but did not reach the sweetness of a 14.29% (w/v-%) HFCS55 cola beverage; also recorded: enhances the sweetness intensity"}, {"measurement": "sweetness of beverage with enhancer compared with higher sweetener concentration", "setting": "[4]; iced tea, 8% (w/v-%) sucrose + 300 μM Reb C, versus 8% and 11% sucrose", "result": "between that of the 8% (w/v-%) solution and that of an 11% (w/v-%) sucrose solution; also recorded: enhances the sweetness intensity"}, {"measurement": "sweetness of beverage with enhancer compared with higher sweetener concentration", "setting": "[4]; iced tea, 10.39% (w/v-%) HFCS55 + 300 μM Reb C, versus 14.29% HFCS55", "result": "indistinguishable from that of a 14.29% (w/v-%) HFCS55 (HFCS) solution; also recorded: acts synergistically"}, {"measurement": "sweetness of beverage with enhancer compared with higher sweetener concentration", "setting": "[4]; lemon-lime soda (citric acid), 10.39% (w/v-%) HFCS55 + 190 ppm Reb C, versus 14.29% HFCS55", "result": "did not reach the sweetness of a 14.29% (w/v-%) HFCS55 solution; also recorded: synergistically enhanced"}, {"measurement": "intrinsic sweetness in unsweetened beverage", "setting": "[4]; unsweetened cola beverage", "result": "does not increase the sweetness of an unsweetened cola beverage"}, {"measurement": "intrinsic sweetness in unsweetened beverage", "setting": "[4]; unsweetened lemon-lime soda (FIG. 16)", "result": "does not increase the sweetness of an unsweetened cola beverage"}, {"measurement": "identification of the sample against water (forced-choice)", "setting": "[5]; 10 ml, room temperature, five subjects", "result": "All subjects correctly identified the sample containing Reb C"}, {"measurement": "qualitative taste description (one per subject)", "setting": "[5]; subjects 1 to 5", "result": "Metallic, not sweet; also recorded: Aversive (“Nasty”); also recorded: Slight sweet, astringent; also recorded: Faintly sweet; also recorded: Slight sweet/licorice"}, {"measurement": "qualitative taste description (one per subject)", "setting": "[6]", "result": "bitter and/or licorice"}, {"measurement": "unpleasant tastes, bitter and licorice", "setting": "[7]; 150, 300 and 600 μM Reb C alone", "result": "barely detected"}, {"measurement": "intrinsic sweetness", "setting": "[7]; 150, 300 and 600 μM Reb C, scale 0 to 8", "result": "little or no intrinsic sweetness"}, {"measurement": "unpleasant tastes, bitter and licorice", "setting": "[7]; Reb C combined with sugar", "result": "undetected"}]}
